Assay results from patent US20040126431A1, “Method for preparing microspheres containing a water-soluble substance” (priority 2000, published 2004).

Assays:
[1] = tested on: IGROV-1 xenografts (peritoneal ovarian adenocarcinoma of human origin); assay: Antitumor activity on IGROV-1 tumors after i.p. administration; format: in vivo, Nude mice; conditions: for Survival at D98: survivors/5 mice
From the text: 10^7 viable IGROV-1 cells were inoculated i.p. into Nude mice. On day 15 after inoculation of tumor cells, the mice were given the substances tested by i.p. administration.
The control group was given only a solution of 5% glucose or empty microspheres. Each group was made up of 5 mice. Isoflurane was used to anesthetize the animals before implantation of the tumor or sacrifice of the animals.
(§1) The experiments were stopped when the size of the tumor reached 2 000 mm^3 or when the period after the final treatment exceeded 60 days. Mice carrying progressive tumors were sacrificed. The mice were weighed and examined twice a week, and the weight of the sick animals was compared with the weight of three healthy mice (no tumor, no treatment, of the same batches). The animals were monitored for 98 days.

[2] = tested on: PC-3 human prostate tumors (xenografts); assay: Antitumor activity on PC-3 human prostate tumors after i.t. administration; format: in vivo, Nude mice
Procedure: 10^7 PC-3 cells were inoculated on the flank of male Nude mice. The treatment began from a tumor size of 210-266 mm^3 (day 30).
The volume of the test substances administered to the PC-3 tumors was equivalent to the tumor volume (1 μl of treatment per 1 mm^3 of tumor).
as §1

In the case of `O=C1[O][Pt]2([NH][C@@H]3CCCC[C@H]3[NH]2)[O]C1=O` [Oxaliplatin, oxaliplatin], the “T/C % (median survival time treated / untreated control x 100)” value ([1]; i.p., 6 mg/kg oxaliplatin administered 3 times every four days, treatment from day 15) is reported as 85.71%, the “Survival at D98” value ([1]; i.p., 6 mg/kg oxaliplatin administered 3 times every four days) is reported as 0/5 and the “antitumor activity (in words)” value ([1]; i.p., dose of 15 mg base/kg oxaliplatin) is reported as “did not show any significant antitumor activity”. The “T/C % (median survival time treated / untreated control x 100)” value ([1]; single i.p. dose, 15 mg/kg oxaliplatin, day 15) was 102.38%, the “Survival at D98” value ([1]; single i.p. dose, 15 mg/kg oxaliplatin) was 1/5 and the T/C % ([2]; i.v., 6 mg/kg oxaliplatin administered three times every four days) was 80.41%. For the same compound, the T/C % ([2]; single i.t. injection, 30 mg/kg oxaliplatin, 30 mg/kg) was 5.24% and the T/C % ([2]; single i.v. injection, 15 mg/kg oxaliplatin) was 55.47%.
